Tests used:
[1] = biological target: recombinant human DPPI (Cathepsin C) (Homo sapiens (Human), UniProt P53634); test: Inhibition of human DPPI (Cathepsin C); type: biochemical; conditions: substrate Gly-Arg-AMC
Protocol: Inhibition of Human DPPI (Cathepsin C)
Bovine serum albumin (BSA; Prod. No. A3059) and Dithiothreitol (DTT; Prod. No D0632) were from Sigma. […] The DPP1 inhibitor Gly-Phe-DMK was purchased from MP Biomedicals (Prod.-No. 03DK00625). The recombinant human DPPI was purchased from Prozymex. All other materials were of highest grade commercially available.
The following buffers were used: MES buffer: 25 mM MES, 50 mM NaCl, 5 mM DTT, adjusted to pH 6.0, containing 0.1% BSA; TAGZyme Buffer: 20 mM NaH2PO4, 150 mM NaCl adjusted to pH 6.0 with HCl
Then, 5 μL of substrate in MES buffer (final concentration 50 μM) were added. The microtiter plates were then incubated at room temperature for 30 min. Then, the reaction was stopped by adding 10 μL of Gly-Phe-DMK in MES-buffer (final concentration 1 μM).
The analysis of the data was performed by calculating the percentage of fluorescence in the presence of test compound in comparison to the fluorescence of the vehicle control after subtracting the background fluorescence using the following formula: (RFU(sample)−RFU(background))*100/(RFU(control)−RFU(background))
Data from these calculations were used to generate IC50 values for inhibition of DPPI, respectively.

[2] = biological target: recombinant human Cathepsin K (Homo sapiens (Human), UniProt P43235); test: Inhibition of human Cathepsin K; type: biochemical; conditions: substrate Z-Gly-Pro-Arg-AMC
Source text: Inhibition of Human Cathepsin K
Materials: Microtiterplates (Optiplate-384 F were purchased from PerkinElmer (Prod. No. 6007270). The substrate Z-Gly-Pro-Arg-AMC was from Biomol (Prod.-No. P-142). L-Cysteine (Prod. No. 168149) was from Sigma. Sodium acetate was from Merck (Prod.-No. 6268.0250), EDTA was from Fluka (Prod.-No. 03680). The inhibitor E-64 was purchased from Sigma (Prod.-No. E3132). The recombinant human Cathepsin K proenzyme was purchased from Biomol (Prod. No. SE-367). All other materials were of highest grade commercially available.
The following buffers were used: Activation buffer: 32.5 mM sodium acetate, adjusted to pH 3.5 with HCl; Assay buffer: 150 mM sodium acetate, 4 mM EDTA, 20 mM L-Cysteine, adjusted to pH 5.5 with HCl,
To activate the proenzyme, 5 μl procathepsin K were mixed with 1 ul activation buffer, and incubated at room temperature for 30 min.
5 μL test compound (final concentration 0.1 nM to 100 μM) in aqua bidest (containing 4% DMSO, final DMSO concentration 1%) were mixed with 10 uL of Cathepsin K in assay buffer (final concentration 2 ng/μL) and incubated for 10 min. […] The plates were then incubated at room temperature for 60 min. Then, the reaction was stopped by adding 10 μL of E64 in assay buffer (final concentration 1 μM). The fluorescence in the wells was determined using a Molecular Devices SpectraMax M5 Fluorescence Reader (Ex 360 nm, Em 460 nm).
Each assay microtiter plate contains wells with vehicle controls (1% DMSO in bidest) as reference for non-inhibited enzyme activity (100% Ctl; high values) and wells with inhibitor (E64 in bidest+1% DMSO, final concentration […]) as controls for background fluorescence (0% Ctl; low values). The analysis of the data was performed by calculating the percentage of fluorescence in the presence of test compound in comparison to the fluorescence of the vehicle control after subtracting the background fluorescence: (RFU(sample)−RFU(background))*100/(RFU(control)−RFU(background))
Data from these calculations were used to generate IC50 values for inhibition of Cathepsin K, respectively.

recombinant human Cathepsin K, sequence (P43235 115-329): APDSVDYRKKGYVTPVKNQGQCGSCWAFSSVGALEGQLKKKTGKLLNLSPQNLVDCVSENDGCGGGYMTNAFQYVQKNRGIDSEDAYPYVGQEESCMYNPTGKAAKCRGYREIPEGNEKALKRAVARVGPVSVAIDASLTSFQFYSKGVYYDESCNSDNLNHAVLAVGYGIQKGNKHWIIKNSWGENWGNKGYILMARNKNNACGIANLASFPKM
recombinant human DPPI (Cathepsin C), sequence (P53634 231-394): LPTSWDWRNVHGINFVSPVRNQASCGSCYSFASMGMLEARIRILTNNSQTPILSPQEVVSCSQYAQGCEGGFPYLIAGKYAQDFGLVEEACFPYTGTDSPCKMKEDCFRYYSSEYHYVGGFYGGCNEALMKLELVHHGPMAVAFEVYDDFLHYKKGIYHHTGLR
recombinant human DPPI (Cathepsin C), sequence (P53634 395-463): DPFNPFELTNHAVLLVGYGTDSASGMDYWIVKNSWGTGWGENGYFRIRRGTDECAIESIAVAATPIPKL
recombinant human DPPI (Cathepsin C), sequence (P53634 25-134): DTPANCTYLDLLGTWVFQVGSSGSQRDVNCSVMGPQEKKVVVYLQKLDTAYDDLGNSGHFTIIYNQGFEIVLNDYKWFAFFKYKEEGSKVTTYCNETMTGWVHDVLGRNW

Row | Structure (SMILES) | IC50 [1] [nM] | IC50 [2] [nM]
1 | CC(=O)n1nc(-c2ccc(CC(C#N)NC(=O)[C@H]3N[C@@H]4CC[C@H]3C4)c(F)c2)cc1C (stereo partly drawn) [Example 7, (1S,2S,4R)—N-[2-[4-(1-acetyl-5-methyl-pyrazol-3-yl)-2-fluoro-phenyl]-1-cyano-ethyl]-3-azabicyclo[2.2.1]heptane-2-carboxamide] | 1.9 | 8000
2 | N#CC(Cc1ccc(-c2ccc3c(c2)COC3=O)cc1F)NC(=O)[C@H]1N[C@@H]2CC[C@H]1C2 (some centres unmarked) [Example 11] | 1.7 | 2600
3 | COC(=O)Cn1cc(-c2ccc(C[C@@H](C#N)NC(=O)[C@H]3N[C@@H]4CC[C@H]3C4)c(F)c2)cn1 [Example 13] | 1.9 | 3400
4 | COC(=O)c1cc(-c2ccc(C[C@@H](C#N)NC(=O)[C@H]3N[C@@H]4CC[C@H]3C4)c(F)c2)cs1 [Example 17] | 2.6 | 6100
5 | N#C[C@H](Cc1ccc(-c2ccsc2)cc1F)NC(=O)[C@H]1N[C@@H]2CC[C@H]1C2 [Example 18] | 2.7 | 3000
6 | CC(=O)n1cc(-c2ccc(C[C@@H](C#N)NC(=O)[C@H]3N[C@@H]4CC[C@H]3C4)c(F)c2)cn1 [Example 20] | 3.1 | 2900
7 | CC(C)(C)n1cc(-c2ccc(C[C@@H](C#N)NC(=O)[C@H]3N[C@@H]4CC[C@H]3C4)c(F)c2)cn1 [Example 23] | 3.7 | 3800
8 | Cc1ncc(-c2ccc(C[C@@H](C#N)NC(=O)[C@H]3N[C@@H]4CC[C@H]3C4)c(F)c2)s1 [Example 25] | 3.9 | 6300
9 | CCn1cc(-c2ccc(C[C@@H](C#N)NC(=O)[C@H]3N[C@@H]4CC[C@H]3C4)c(F)c2)cn1 [Example 26] | 4 | 3600
10 | Cc1ccc(-c2ccc(C[C@@H](C#N)NC(=O)[C@H]3N[C@@H]4CC[C@H]3C4)c(F)c2)o1 [Example 27] | 4 | 3200
11 | CCCn1cc(-c2ccc(C[C@@H](C#N)NC(=O)[C@H]3N[C@@H]4CC[C@H]3C4)c(F)c2)cn1 [Example 30] | 4.2 | 3100
12 | Cc1c(-c2ccc(C[C@@H](C#N)NC(=O)[C@H]3N[C@@H]4CC[C@H]3C4)c(F)c2)cnn1C [Example 39] |  | 7800
13 | Cc1cc(-c2ccc(C[C@@H](C#N)NC(=O)[C@H]3N[C@@H]4CC[C@H]3C4)c(F)c2)n(C)n1 [Example 63] |  | 6200
14 | Cc1c(-c2ccc(C[C@@H](C#N)NC(=O)[C@H]3N[C@@H]4CC[C@H]3C4)c(F)c2)cnn1C [Example 65] |  | 11700
15 | CC(C)n1cc(-c2ccc(CC(C#N)NC(=O)[C@H]3N[C@@H]4CC[C@H]3C4)c(F)c2)cn1 (some centres unmarked) [Example 68] |  | 7300
16 | COc1cccc(-c2cn(-c3ccc(C[C@@H](C#N)NC(=O)[C@H]4N[C@@H]5CC[C@H]4C5)c(F)c3)nn2)c1 [Example 94] |  | 4900
17 | CN(C)CCN1C(=O)Cc2cc(-c3ccc(C[C@@H](C#N)NC(=O)[C@H]4N[C@@H]5CC[C@H]4C5)c(F)c3)ccc21 [Example 279] | 5.5 | 
18 | CC(C)N1CCC(c2ccc(C[C@@H](C#N)NC(=O)[C@H]3N[C@@H]4CC[C@H]3C4)c(F)c2)CC1 [Example 280] | 21.2 | 
19 | CN(C)C(=O)c1cnn(-c2ccc(C[C@@H](C#N)NC(=O)[C@H]3N[C@@H]4CC[C@H]3C4)c(F)c2)c1 [Example 286] | 38.9 | 
20 | N#C[C@H](Cc1ccc(-n2cc(C(=O)N3CCOCC3)cn2)cc1F)NC(=O)[C@H]1N[C@@H]2CC[C@H]1C2 [Example 287] | 39.7 | 
21 | N#C[C@H](Cc1ccc(OCc2ccccc2)cc1F)NC(=O)[C@H]1N[C@@H]2CC[C@H]1C2 [Example 290] | 20.6 | 
22 | COC(=O)c1ccc2[nH]c(=O)c3cc(CC(C#N)NC(=O)[C@H]4N[C@@H]5CC[C@H]4C5)ccc3c2c1 (some centres unmarked) [Example 299] | 3.2 | 
23 | N#Cc1cc2c(cc1C(F)(F)F)[nH]c(=O)c1cc(CC(C#N)NC(=O)[C@H]3N[C@@H]4CC[C@H]3C4)ccc12 (some centres unmarked) [Example 302] | 4.7 | 

Row | Structure (SMILES) | IC50 [1] [nM] | IC50 [2] [nM]
24 | N#CC(Cc1ccc2c(c1)c(=O)[nH]c1ccc(Cl)cc12)NC(=O)[C@H]1N[C@@H]2CC[C@H]1C2 (some centres unmarked) [Example 304] | 6 | 
25 | N#Cc1ccc2c(c1)[nH]c(=O)c1cc(CC(C#N)NC(=O)[C@H]3N[C@@H]4CC[C@H]3C4)ccc12 (some centres unmarked) [Example 309] | 9.1 | 
26 | COC(=O)c1cccc2c1[nH]c(=O)c1cc(CC(C#N)NC(=O)[C@H]3N[C@@H]4CC[C@H]3C4)ccc12 (some centres unmarked) [Example 311] | 9.9 | 
27 | COc1ccc2[nH]c(=O)c3cc(CC(C#N)NC(=O)[C@H]4N[C@@H]5CC[C@H]4C5)ccc3c2c1 (some centres unmarked) [Example 312] | 11 | 
28 | N#CC(Cc1ccc2c(cnc3ccccc32)c1)NC(=O)[C@H]1N[C@@H]2CC[C@H]1C2 (some centres unmarked) [Example 316] | 42.4 | 
29 | N#C[C@H](Cc1cc(-c2cccc(O)n2)ccc1F)NC(=O)[C@H]1N[C@@H]2CC[C@H]1C2 [Example 317] | 52 | 
30 | CN1CCN(c2ccc(F)c(C[C@@H](C#N)NC(=O)[C@H]3N[C@@H]4CC[C@H]3C4)c2)CC1 [Example 318] | 212 | 
31 | N#C[C@H](Cc1ccc(N2C3CCC2CN(C2CCOC2)C3)cc1F)NC(=O)[C@H]1N[C@@H]2CC[C@H]1C2 (some centres unmarked) [Example 329] | 7 | 
32 | N#C[C@H](Cc1ccc(-c2ccc3c(c2)CC(=O)N3C2CCNCC2)cc1F)NC(=O)[C@H]1N[C@@H]2CC[C@H]1C2 [Example 334] | 22 | 
33 | N#C[C@H](Cc1ccc(N2CCN(C3CCOCC3)CC2)cc1F)NC(=O)[C@H]1N[C@@H]2CC[C@H]1C2 [Example 336] | 24.5 | 
34 | N#C[C@H](Cc1ccc(C2CCN(C3CCOC3)CC2)cc1F)NC(=O)[C@H]1N[C@@H]2CC[C@H]1C2 (some centres unmarked) [Example 337] | 28.2 | 
35 | N#C[C@H](Cc1ccc(C2CCCN(C3CCOC3)C2)cc1F)NC(=O)[C@H]1N[C@@H]2CC[C@H]1C2 (some centres unmarked) [Example 338] | 44.3 | 
36 | CN1CCN(S(=O)(=O)c2cc(-c3ccc(C[C@@H](C#N)NC(=O)[C@H]4N[C@@H]5CC[C@H]4C5)c(F)c3)ccc2F)CC1 [Example 339] | 1.3 | 
37 | CN1CCCN(S(=O)(=O)c2ccc(-c3ccc(C[C@@H](C#N)NC(=O)[C@H]4N[C@@H]5CC[C@H]4C5)c(F)c3)cc2)CC1 [Example 340] | 1.8 | 
38 | COCCN1CCC(c2ccc(C[C@@H](C#N)NC(=O)[C@H]3N[C@@H]4CC[C@H]3C4)c(F)c2)C1 (some centres unmarked) [Example 350] | 38.6 | 
39 | N#C[C@H](Cc1ccc2c(c1F)CCC(N1CCOCC1)C2)NC(=O)[C@H]1N[C@@H]2CC[C@H]1C2 (some centres unmarked) [Example 351] | 82.8 | 
40 | N#C[C@H](Cc1ccc(N2CCC3COCC3C2)cc1F)NC(=O)[C@H]1N[C@@H]2CC[C@H]1C2 (some centres unmarked) [Example 352] | 17.3 | 
41 | CN1CC2CCN(c3ccc(C[C@@H](C#N)NC(=O)[C@H]4N[C@@H]5CC[C@H]4C5)c(F)c3)C2C1 (some centres unmarked) [Example 353] | 6.5 | 
42 | N#C[C@H](Cc1ccc(N2CCC3CN(C4CCOC4)CC32)cc1F)NC(=O)[C@H]1N[C@@H]2CC[C@H]1C2 (some centres unmarked) [Example 354] | 6.8 | 
43 | CN1CCO[C@@H]2CN(c3ccc(C[C@@H](C#N)NC(=O)[C@H]4N[C@@H]5CC[C@H]4C5)c(F)c3)C[C@@H]21 [Example 355] | 22.4 | 
44 | CN1CCO[C@@H]2CCN(c3ccc(C[C@@H](C#N)NC(=O)[C@H]4N[C@@H]5CC[C@H]4C5)c(F)c3)C[C@@H]21 [Example 356] | 20 | 
45 | CN1CCO[C@H]2CN(c3ccc(C[C@@H](C#N)NC(=O)[C@H]4N[C@@H]5CC[C@H]4C5)c(F)c3)CC[C@@H]21 [Example 357] | 33.8 | 

From US8987249B2, “Substituted 2-Aza-bicyclo[2.2.1]heptane-3-carboxylic acid (benzyl-cyano-methyl)-amides inhibitors of Cathepsin C” (Boehringer Ingelheim International GmbH, priority 2013, dated 2015)
